Measurements taken from patent US5719130A, “Anthracycline derivative having a trifluoromethylated sugar” (Zaidan Hojin Biseibutsu Kagaku Kenkyu Kai, priority 1994, dated 1998).
In brackets after ≈: the same amount, converted by molar mass.

What was measured:
[1] = clinical treatments, patients; cited from earlier work
[2] = test system: Leukemia L-1210 cells; test: Antitumor activity against leukemia L-1210 in CDF1 mice, 30-day observation (Test Example 2); assay type: in vivo, mouse; details: 9 days, 30 d observation, '>' = at least one of four mice survived 30 days
Description: Since an elapsed time of 24 hours from the transplantation of the leukemia cells, Compound (c) of this invention was administered intraperitoneally to the mice under test for 9 consecutive days once per day. […] While, mice of the control group (the untreated group) were administered with only physiological saline after the transplantation of the L-1210 cells. During the observation period, the numbers of the surviving mice in the treated group and the control group were counted, and the mean survival days of mice in the treated group and in the control group were then calculated. From the mean survival day (C) of the untreated mice of the control group and the mean survival day (T) of the treated mice of the treated group, there were evaluated percentages (%) of the increase in the life-span of the treated mice as T/C %. For a comparison purpose, adriamycin was also tested in the same manner as above.

[3] = test system: Leukemia L-1210 cells; test: Antitumor activity against leukemia L-1210 in CDF1 mice, 60-day observation (Test Example 1); assay type: in vivo, mouse; details: for % Increase in life-span (T/C, %): 9 days, 60 d observation, '>' = at least one of four mice survived 60 days
Description: Thus, to evaluate the antitumor effects of the new compounds of this invention against experimental tumors in animals, CDF1 mice (four mice per group) were intraperitoneally transplanted with cells of Leukemia L-1210 at an amount of 1×10^5 cells/mouse. Since an elapsed time of 24 hours from the transplantation of the leukemia cells, a test compound according to this invention was administered intraperitoneally to the mice under test for 9 consecutive days once per day. […] While, mice of the control group (the untreated group) were administered with only physiological saline after the transplantation of the L-1210 cells. During the observation period, the numbers of the surviving mice in the treated group and in the control group were counted, and the mean survival days of mice in the treated group and in the control group were then calculated. From the mean survival day (C) of the untreated mice of the control group and the mean survival day (T) of the treated mice of the treated group, there were evaluated percentages (%) of the increase in the life-span of the treated mice, as T/C %. For a comparison purpose, 7-O-(2,6-dideoxy-2-fluoro-α-L-talopyranosyl)daunomycinone (abbreviation: FT-DM); 7-O-(2,6-dideoxy-2-fluoro-α-L-talopyranosyl)adriamycinone (abbreviation: FT-ADM); daunomycin and adriamycin were also tested in the same manner as above. Incidentally, the mean survival day of mice of the control group (the untreated group) was amounting to 8 to 9 days, and the mean survival day of mice of the comparative groups having received the administration of adriamycin was varying dependently on the dosage of adriamycin.

[4] = test system: adriamycin-resistant P388 cells (P388/ADR); test: In vitro inhibition of growth of adriamycin-resistant P388 cells, 72 hours (Test Example 3); assay type: cell-based, mouse; details: Mus musculus; P388/ADR, 72 hours
Description: (§1) Furthermore, in order to estimate the antitumor activities of Compound (a) and Compound (b) of this invention represented by the general formula (I), as well as the adriamycinone derivative represented by the formula (II) (namely, Compound (c) of this invention), some "in vitro" tests for inhibiting proliferation of cancer cells were conducted as shown below.
(§2) The above-mentioned Compound (a), Compound (b) or Compound (c) according to this invention were added at varying concentrations to mouse leukemia, P388 cells or adriamycin-resistant P388 cells (P388/ADR) which had been incubated in test tubes containing an appropriate culture medium. The incubation of the tumor cells were then continued for 72 hours from the addition of the test compound, and determination was made to evaluate such concentrations of the test compound which could inhibit the growth of the leukemia cells by 50% (namely, IC50' ng/ml). FT-DM, FT-ADM and adriamycin (as the hydrochloride) were used as comparative compounds and were tested in the same manner as above.

[5] = test system: P388 cells; test: In vitro inhibition of growth of P388 cells, 72 hours (Test Example 3); assay type: cell-based, mouse; details: Mus musculus, P388, 72 h
Description: as §1, §2

COc1cccc2c1C(=O)c1c(O)c3c(c(O)c1C2=O)C[C@@](O)(C(=O)CO)C[C@@H]3O[C@H]1C[C@H](N)[C@H](O)[C@H](C)O1 [Adriamycin, adriamycin]
serious side-effects (in words) [1]: serious side-effects such as leukocytopenia, alopecia, myocardiopathy and others
% Increase in life-span (T/C, %) ([2]; 0.15 mg/kg/day i.p.): 140%
% Increase in life-span (T/C, %) ([2]; 0.3 mg/kg/day i.p.): 132%
% Increase in life-span (T/C, %) ([2]; 0.6 mg/kg/day i.p.): 208%
% Increase in life-span (T/C, %) ([2]; 1.25 mg/kg/day i.p.): 330%
% Increase in life-span (T/C, %) ([2]; 2.5 mg/kg/day i.p.): 273%
% Increase in life-span (T/C, %) ([2]; 5 mg/kg/day i.p.): 177%
% Increase in life-span (T/C, %) ([3]; 0.15 mg/kg/day i.p.): 140%
% Increase in life-span (T/C, %) ([3]; 0.3 mg/kg/day i.p.): 132%
% Increase in life-span (T/C, %) ([3]; 0.6 mg/kg/day i.p.): 208%
% Increase in life-span (T/C, %) ([3]; 1.25 mg/kg/day i.p.): 330%
% Increase in life-span (T/C, %) ([3]; 2.5 mg/kg/day i.p.): 273%
percentages (%) of increase in life-span (T/C, %) ([3]; 2.5 mg/kg/day to 5 mg/kg/day, about / approximately at maximum): approximately 330%
% Increase in life-span (T/C, %) ([3]; 5 mg/kg/day i.p.): 177%
development of toxicity (in words) ([3]; 2.5 to 5 mg/kg/day for daunomycin, adriamycin, 0.3 to 1.25 mg/kg/day for Compound (b), low dosages for formula (I)): accompanied by development of toxicity
IC50 [4]: 0.51 µg/mL (≈ 0.938 µM)
IC50 [5]: 0.017 µg/mL (≈ 0.0313 µM)
